Bridge positions count the residues as written; N and C are the ends. Peptide text beside a SMILES is read from it.

The test system of the experiment is rat fibrotic disease model (bleomycin). The experiment can be described thus: Hydroxyproline (HYP) content / collagen deposition in lung, bleomycin rat fibrosis model. In kind it is in vivo. Conditions: 2 mg/kg intratracheal twice weekly x4 from Day 1, Day 15, model group = 100.00. Here is the method: This Example was to evaluate the inhibitory effect of polypeptides on collagen deposition at the pathological sites of pulmonary fibrosis. 6- to 8-week-old male SD rats weighing 200 to 220 g were used as subjects for the study. The experimental animals were randomized into groups, 8 animals in each group. On the day of modeling (Day 1), a single dose of 1.8 USP/kg of bleomycin solution was administered via the tracheal route to the model group and each peptide-treated group to induce the model. Starting on Day 1, each peptide-treated group received intratracheal administration of the peptide at a dosage of 2 mg/kg, with a dosing frequency of twice a week, for a total of four administrations. The model group received an equal volume of solvent (saline) as a control, with the volume being 100 μL. The procedure followed that described in Example 4. Day 15 was set as the experimental endpoint for assessing the degree of fibrosis in the model.
On Day 15, the animals were dissected to collect lung tissues. After grinding the rat lung tissues in liquid nitrogen, total hydroxyproline (HYP) was extracted from the tissues using acid hydrolysis, and the HYP content was determined by chloramine T oxidation colorimetry. 1 mL of 6N HCl was added per 100 mg of tissue and thoroughly mixed, followed by hydrolysis at 121° C. for 6 hours. The hydrolysate was centrifuged, and the resulting supernatant was used for HYP content determination. To a 96-well plate, the hydrolysate supernatant, or a gradient of HYP standard solutions (Sigma, Catalog No. V900395-25G) at different concentrations, was added in 10 μL per well, and dried in an oven at 65° C. 100 μL per well of 1.4% chloramine T oxidizing solution (Sigma, Catalog No. 23270-50G) was added, and incubated at room temperature for 15 minutes. 100 μL per well of Ehrlich's color development solution (Solarbio, Catalog No. G1290) was added and incubated at 65° C. for 30 minutes. The absorbance of each sample well was measured at 560 nm (OD560) using a multifunctional microplate reader (TECAN, model Infinite 200 Pro). The total HYP content in the lung tissue from each experimental group was calculated to determine the reduction percentage of HYP content in the peptide-treated group relative to the model group, and the inhibitory effect of the peptide molecule on collagen deposition at the fibrotic site was assessed.
Consider `CC(=O)N[C@H](C(=O)N[C@H]1CSSC[C@@H](C(=O)O)NC(=O)[C@H](CC(N)=O)NC(=O)[C@H](CC(=O)O)NC(=O)[C@H](CCC(=O)O)NC(=O)[C@H](C)NC(=O)[C@H](CC(=O)O)NC1=O)[C@@H](C)O` [SEQ ID NO: 43, Ac-Thr-cyclo[Cys-Asp-Ala-Glu-Asp-Asn-Cys]] (Ac-TCDAEDNC-OH; disulfide 2-8), for which the “HYP content in lung tissue relative to model group, Mean (%)” value is given as 72.91%.

For the molecule “Ac-TQDAEDN-NH2 [SEQ ID NO: 06, Ac-Thr-Gln-Asp-Ala-Glu-Asp-Asn-NH2]”, the “HYP content in lung tissue relative to model group, Mean (%)” value is 80.30%. With “Ac-TQDAEDNTASH-NH2 [SEQ ID NO: 33, Ac-Thr-Gln-Asp-Ala-Glu-Asp-Asn-Thr-Ala-Ser-His-NH2]”, the “HYP content in lung tissue relative to model group, Mean (%)” value amounted to 80.28%. `C[C@@H]1NC(=O)[C@H]([C@@H](C)O)NC(=O)[C@H](CC(N)=O)NC(=O)[C@H](CC(=O)O)NC(=O)[C@H](CCC(=O)O)NC(=O)[C@@H]2CCCN2C(=O)[C@H](CC(=O)O)NC(=O)[C@H](CCC(N)=O)NC(=O)[C@H]([C@@H](C)O)NC(=O)[C@H](CO)NC1=O` [SEQ ID NO: 46, cyclo[Thr-Gln-Asp-Pro-Glu-Asp-Asn-Thr-Ala-Ser]] (cyclo(ASTQDPEDNT)): the “HYP content in lung tissue relative to model group, Mean (%)” value is recorded as 66.46%.

For the molecule `C[C@@H]1NC(=O)[C@H](CC(=O)O)NC(=O)[C@H](CCC(N)=O)NC(=O)[C@H]([C@@H](C)O)NC(=O)[C@H](CC(N)=O)NC(=O)[C@H](CC(=O)O)NC(=O)[C@H](CCC(=O)O)NC1=O` [SEQ ID NO: 40, cyclo[Thr-Gln-Asp-Ala-Glu-Asp-Asn]] (cyclo(AEDNTQD)), the “HYP content in lung tissue relative to model group, Mean (%)” value came out at 72.93%. Under “Ac-TQDAEDPTA-NH2 [SEQ ID NO: 22, Ac-Thr-Gln-Asp-Ala-Glu-Asp-Pro-Thr-Ala-NH2]” stands 68.30%. With “Ac-TQDPEDNTAS-NH2 [SEQ ID NO: 26, Ac-Thr-Gln-Asp-Pro-Glu-Asp-Asn-Thr-Ala-Ser-NH2]”, the “HYP content in lung tissue relative to model group, Mean (%)” value was found to be 78.75%. For “Ac-TQDAEDPTAS-NH2 [SEQ ID NO: 25, Ac-Thr-Gln-Asp-Ala-Glu-Asp-Pro-Thr-Ala-Ser-NH2]”, the “HYP content in lung tissue relative to model group, Mean (%)” value is recorded as 81.45%. In the case of `CC(=O)N[C@H](C(=O)N[C@H]1CSSC[C@@H](C(N)=O)NC(=O)[C@H](CC(N)=O)NC(=O)[C@H](CC(=O)O)NC(=O)[C@H](CCC(=O)O)NC(=O)[C@H](C)NC(=O)[C@H](CC(=O)O)NC1=O)[C@@H](C)O` [SEQ ID NO: 44, Ac-Thr-cyclo[Cys-Asp-Ala-Glu-Asp-Asn-Cys]-NH2] (Ac-TCDAEDNC-NH2; disulfide 2-8), the “HYP content in lung tissue relative to model group, Mean (%)” value was found to be 65.55%.

Values taken from patent publication US20250388623A1, “PEPTIDE INHIBITOR AND USE THEREOF” (CHENGDU BRILLIANT INSPIRATION BIOTHERAPEUTICS CO., LTD, priority 2022, published 2025).
